The values that follow come from patent US12109272B2, “Intermittent dosing of glucocorticoid receptor modulators for the treatment of ovarian and other cancers” (Corcept Therapeutics Incorporated, priority 2021, dated 2024).

Holding throughout (format): in vivo, human
One series relates to GR-inducible genes. As to the kind of experiment: Separate healthy volunteer study: genes induced in whole blood by prednisone. The conditions noted are these: single dose, healthy volunteers.
The nature of series [1]: Phase 2 study: safety and tolerability (adverse events). The conditions noted are these: relacorilant (intermittent or continuous) + nab-paclitaxel compared to nab-paclitaxel monotherapy; data as of Mar. 22, 2021. The protocol: Independent comparisons for the intermittent versus (vs.) comparator study arms and the continuous vs. comparator arms were performed. The primary endpoint of the study was progression-free survival as determined by the Response Evaluation Criteria in Solid Tumors (“RECIST”) version 1.1 guidelines (available via the World Wide Web at the following URL: ctep.cancer.gov/protocolDevelopment/docs/recist_guideline.pdf). Secondary endpoints included objective response rate, duration of response, overall survival, and safety of the combined administration of nab-paclitaxel and relacorilant. All efficacy objectives and corresponding endpoints listed below, assessment for response and disease progression were assessed according to RECIST v1.1.
Relacorilant treatment was safe, for both the intermittent and continuous groups, and was well tolerated by the patients. […] Safety and tolerability of the three treatment regimens is illustrated in FIG. 8 (data as of Mar. 22, 2021). There were fewer serious (grade ≥3) peripheral neuropathies in the intermittent group than the comparator group. […]

Series [2] in a line: Phase 2 study: exposures (AUC, Cmax) of relacorilant and nab-paclitaxel. The conditions noted are these: patients. The protocol:
The exposures and peak concentrations of both nab-paclitaxel and of relacorilant were measured.

Structures are written as SMILES.

With `C[C@]12C=CC(=O)C=C1CC[C@@H]1[C@@H]2C(=O)C[C@@]2(C)[C@H]1CC[C@]2(O)C(=O)CO` [prednisone], the “number of genes induced” value in the series on GR-inducible genes was found to be 239.
Regarding `Cn1cc(S(=O)(=O)N2CCC3=Cc4c(cnn4-c4ccc(F)cc4)C[C@]3(C(=O)c3cc(C(F)(F)F)ccn3)C2)cn1` [relacorilant, (R)-(1-(4-fluorophenyl)-6-((1-methyl-1H-pyrazol-4-yl)sulfonyl)-4,4a,5,6,7,8-hexahydro-1H-pyrazolo[3,4-g]isoquinolin-4a-yl)(4-(trifluoromethyl)pyridin-2-yl)methanone], the safety and tolerability result in series [1] is given as “safe”. Moreover, the “exposures (AUC and Cmax) versus safety endpoints, presence or absence of the adverse events” value in series [2] is recorded as “largely overlapping exposures”. For the same compound, in series [2] (all groups, AUC and Cmax), the variability of exposures result is reported as “large variability”.
